Assay results reported in ChEMBL document CHEMBL1130751, “Synthesis and 5 alpha-reductase inhibitory activity of 8-substituted benzo[f]quinolinones derived from palladium mediated coupling reactions” (Bioorg Med Chem Lett, 1998).
pIC50: −log10 of the molar value.

Columns and labels:
[1] = biological target: T1, 3-oxo-5-alpha-steroid 4-dehydrogenase 2 (Homo sapiens, UniProt P31213); assay: Inhibitory activity against Steroid 5-alpha-reductase type 2 as [3H]T to [3H]-DHT conversion human prostate nuclear membrane; type: tissue-based, Prostate gland
T1 sequence (P31213 whole entry): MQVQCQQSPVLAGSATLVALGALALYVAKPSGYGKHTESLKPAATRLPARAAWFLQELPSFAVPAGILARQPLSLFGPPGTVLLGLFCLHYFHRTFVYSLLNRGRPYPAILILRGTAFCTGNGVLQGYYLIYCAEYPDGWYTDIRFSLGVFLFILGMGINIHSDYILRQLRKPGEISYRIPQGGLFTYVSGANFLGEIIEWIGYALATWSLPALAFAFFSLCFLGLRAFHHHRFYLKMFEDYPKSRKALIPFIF

[2] = biological target: T2, 3-oxo-5-alpha-steroid 4-dehydrogenase 1 (Homo sapiens, UniProt P18405); assay: Inhibitory activity against Steroid 5-alpha-reductase type I enzyme based on the conversion of [3H]-T to [3H]DHT in nuclear membrane preparations from human scalp; type: cell membranes
T2 sequence (P18405 whole entry): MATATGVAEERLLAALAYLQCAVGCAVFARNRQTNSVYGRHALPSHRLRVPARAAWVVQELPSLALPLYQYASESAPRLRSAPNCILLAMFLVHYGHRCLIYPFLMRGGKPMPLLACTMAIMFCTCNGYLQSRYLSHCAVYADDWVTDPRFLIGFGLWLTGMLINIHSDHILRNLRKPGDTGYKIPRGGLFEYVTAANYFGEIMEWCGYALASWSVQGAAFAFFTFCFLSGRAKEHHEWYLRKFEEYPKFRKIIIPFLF

[3] = biological target: T2, 3-oxo-5-alpha-steroid 4-dehydrogenase 1; assay: Inhibitory activity against Steroid 5-alpha-reductase type 1 enzyme based on the conversion of [3H]T to [3H]-DHT in nuclear membrane preparations from human scalp; type: cell membranes

Row | SMILES | pIC50 [1] | pIC50 [2] | pIC50 [3]
1 | CN1C(=O)CC[C@]2(C)c3ccc(C#Cc4ccccc4)cc3CC[C@@H]12 | 7.28 | 7.68 | 
2 | CN1C(=O)CC[C@]2(C)c3ccc(CC(=O)O)cc3CC[C@@H]12 | 6.06 |  | 
3 | CN1C(=O)CC[C@]2(C)c3ccc(CC(N)=O)cc3CC[C@@H]12 | < 5.00 |  | < 5.00
4 | CN1C(=O)CC[C@]2(C)c3ccc(/C=C\c4ccccc4)cc3CC[C@@H]12 | 5.85 | 8.22 | 
5 | CCN(CC)C(=O)Cc1ccc2c(c1)CC[C@H]1N(C)C(=O)CC[C@]21C | < 5.00 |  | < 5.00
6 | CN1C(=O)CC[C@]2(C)c3ccc(/C=C/c4cnc5ccccc5c4)cc3CC[C@@H]12 | 6.49 |  | 8.47
7 | CN1C(=O)CC[C@]2(C)c3ccc(-c4ccco4)cc3CC[C@@H]12 | < 5.00 |  | 7.23
8 | CN1C(=O)CC[C@]2(C)c3ccc(/C=C/c4ccccc4)cc3CC[C@@H]12 | 6.74 | 7.64 | 
9 | CN1C(=O)CC[C@]2(C)c3ccc(CC(=O)Nc4ccccc4)cc3CC[C@@H]12 | 6.28 |  | < 5.00
10 | CN1C(=O)CC[C@]2(C)c3ccc(/C=C/c4cncc5ccccc45)cc3CC[C@@H]12 | 5.87 |  | 7.20
11 | CN1C(=O)CC[C@]2(C)c3ccc(/C=C/c4ccc5ccccc5n4)cc3CC[C@@H]12 | 6.26 |  | 7.49
12 | CN1C(=O)CC[C@]2(C)c3ccc(-c4cccs4)cc3CC[C@@H]12 | < 5.00 |  | < 5.00
13 | CN1C(=O)CC[C@]2(C)c3ccc(CC(=O)NC(C)(C)C)cc3CC[C@@H]12 | < 5.00 |  | < 5.00
